From DBAASP come the findings set out here.

Molecules are shown by their SMILES. In brackets after ≈: the same amount, converted by molar mass. A value given as a limit tells only on which side of the number the result lay.

Among the test systems are Escherichia coli; Acinetobacter baumannii; Escherichia coli K99; Klebsiella pneumoniae; Pseudomonas aeruginosa; Escherichia coli K88; Escherichia coli UB1005; Staphylococcus aureus; Staphylococcus aureus MR; Enterococcus faecalis; Serratia marcescens; Enterococcus faecium; Streptococcus pneumoniae.
What all share (assay): ≥ marks a high value that may be exact or a test limit, other limits are often not marked, values filed in µg/mL are converted to µM
For assay [1], the system named is Escherichia coli DH5alpha.
In assay [2] the test system is Pseudomonas aeruginosa ATCC 27853.
Assay [3] relates to Escherichia coli ATCC 25922.
Assay [4] concerns Pseudomonas aeruginosa H188.
Assay [5] concerns Salmonella enterica subsp. enterica serovar Typhimurium C77-31.
Assay [6] concerns Salmonella enterica subsp. enterica serovar Typhimurium ATCC 14028.
For assay [7], the system named is Pseudomonas aeruginosa PAO1.
For assay [8], the system named is Pseudomonas aeruginosa CICC 21625.
Assay [9] deals with Pseudomonas aeruginosa CICC 21630.
The subject of assay [10] is Salmonella enterica subsp. enterica serovar Pullorum C79-13.
Assay [11] concerns Stenotrophomonas maltophilia.
Assay [12] concerns Enterococcus faecalis NCTC 12697.
In assay [13] the test system is Staphylococcus aureus ATCC 12493.
In assay [14] the test system is Escherichia coli NCTC 10418.
Assay [15] concerns Staphylococcus aureus NCTC 10788.
Assay [16] deals with Candida albicans NCTC 1467.

A word on the MIC: it is the smallest concentration in the dilution series that meets the test's criterion for growth inhibition. A lower MIC goes with greater potency. Regarding `CC[C@H](C)[C@H](NC(=O)[C@H](C)NC(=O)[C@H](CCCCN)NC(=O)[C@H](CC(C)C)NC(=O)[C@H](C)NC(=O)[C@@H](NC(=O)[C@H](Cc1cnc[nH]1)NC(=O)[C@H](CC(C)C)NC(=O)[C@H](CO)NC(=O)[C@@H](NC(=O)[C@H](CCCCN)NC(=O)[C@H](CCCCN)NC(=O)[C@H](C)NC(=O)[C@H](CO)NC(=O)[C@H](CCCCN)NC(=O)[C@H](Cc1ccccc1)NC(=O)[C@@H](NC(=O)[C@H](CCCCN)NC(=O)[C@H](CC(C)C)NC(=O)[C@H](Cc1ccccc1)NC(=O)[C@H](CO)NC(=O)[C@H](CCCCN)NC(=O)[C@H](Cc1c[nH]c2ccccc12)NC(=O)[C@H](CCCCN)NC(C)=O)[C@@H](C)O)[C@@H](C)O)[C@@H](C)O)C(=O)N[C@@H](CO)C(=O)N[C@@H](CO)C(N)=O` [KWKSFLKTFKSAKKTSLHTALKAISS], the MIC is 2.72 µM (≈ 8.11 µg/mL) in assay [1]; 5.45 µM (≈ 16.2 µg/mL) in the assay on Escherichia coli; 10.9 µM (≈ 32.4 µg/mL) in [2]; 2.72 µM (≈ 8.11 µg/mL) in assay [3]; 1.36 µM (≈ 4.06 µg/mL) in assay [4].

On to `CC(C)[C@H](N)C(=O)N[C@@H](CCCN=C(N)N)C(=O)N1CCC[C@H]1C(=O)N[C@H](C(=O)N[C@H](C(=O)N[C@@H](CCCN=C(N)N)C(=O)N1CCC[C@H]1C(=O)N[C@H](C(=O)N[C@H](C(=O)N[C@@H](CCCN=C(N)N)C(=O)N1CCC[C@H]1C(=O)N[C@H](C(=O)N[C@H](C(=O)N[C@@H](CCCN=C(N)N)C(=O)N1CCC[C@H]1C(=O)N[C@H](C(=O)N[C@H](C(=O)N[C@@H](CCCN=C(N)N)C(=O)N1CCC[C@H]1C(=O)N[C@H](C(=O)N[C@H](C(=O)N[C@@H](CCCN=C(N)N)C(=O)N1CCC[C@H]1C(=O)N[C@H](C(N)=O)C(C)C)C(C)C)C(C)C)C(C)C)C(C)C)C(C)C)C(C)C)C(C)C)C(C)C)C(C)C)C(C)C` [VRPVVRPVVRPVVRPVVRPVVRPV], for which the MIC was 4 µM (≈ 10.9 µg/mL) against Acinetobacter baumannii; 16 µM (≈ 43.6 µg/mL) in the assay with Escherichia coli K99; no less than 32 µM in assay [5]; 16 µM (≈ 43.6 µg/mL) in assay [6]; 64 µM (≈ 174 µg/mL) against Escherichia coli; greater than 64 µM in the assay on Klebsiella pneumoniae. The MIC against Pseudomonas aeruginosa is greater than 64 µM; against Escherichia coli K88, 8 µM (≈ 21.8 µg/mL); in assay [7], greater than 64 µM; in [2], greater than 64 µM; in assay [8], no less than 64 µM; in assay [3], 64 µM (≈ 174 µg/mL). Besides, the MIC was no less than 64 µM in assay [9], no less than 32 µM in the assay on Escherichia coli UB1005 and 8 µM (≈ 21.8 µg/mL) in assay [10].

On to `CC[C@H](C)[C@H](NC(=O)[C@H](C)NC(=O)[C@H](CCCCN)NC(=O)[C@H](CC(C)C)NC(=O)[C@H](C)NC(=O)[C@@H](NC(=O)[C@H](Cc1cnc[nH]1)NC(=O)[C@H](CC(C)C)NC(=O)[C@H](CCCCN)NC(=O)[C@@H](NC(=O)[C@H](CCCCN)NC(=O)[C@H](CCCCN)NC(=O)[C@H](C)NC(=O)[C@H](CO)NC(=O)[C@H](CCCCN)NC(=O)[C@H](Cc1ccccc1)NC(=O)[C@@H](NC(=O)[C@H](CCCCN)NC(=O)[C@H](CC(C)C)NC(=O)[C@H](Cc1ccccc1)NC(=O)[C@H](CO)NC(=O)[C@H](CCCCN)NC(=O)[C@H](Cc1c[nH]c2ccccc12)NC(=O)[C@H](CCCCN)NC(C)=O)[C@@H](C)O)[C@@H](C)O)[C@@H](C)O)C(=O)N[C@@H](CO)C(=O)N[C@@H](CO)C(N)=O` [KWKSFLKTFKSAKKTKLHTALKAISS], for which the MIC in assay [1] came out at 5.37 µM (≈ 16.2 µg/mL); in the assay on Escherichia coli, 2.69 µM (≈ 8.11 µg/mL); in assay [2], 10.7 µM (≈ 32.4 µg/mL); in [3], 10.7 µM (≈ 32.4 µg/mL); in assay [4], 5.37 µM (≈ 16.2 µg/mL).

On to `CC[C@H](C)[C@H](NC(=O)[C@H](CC(C)C)NC(=O)CNC(=O)[C@H](CO)NC(=O)[C@@H](NC(=O)[C@H](CC(C)C)NC(=O)[C@@H](N)CC(N)=O)C(C)C)C(=O)N[C@@H](CCC(=O)O)C(=O)N[C@@H](C)C(=O)N[C@@H](CCCN=C(N)N)C(=O)N[C@@H](CCCCN)C(=O)N[C@@H](Cc1ccc(O)cc1)C(=O)N[C@@H](CC(C)C)C(=O)N[C@@H](CCC(=O)O)C(=O)N[C@@H](CCC(N)=O)C(=O)N[C@@H](CC(C)C)C(=O)N[C@@H](Cc1cnc[nH]1)C(=O)N[C@@H](CCCN=C(N)N)C(=O)N[C@@H](CCCCN)C(=O)N[C@@H](CC(C)C)C(=O)N[C@@H](CCCCN)C(=O)N[C@@H](CC(N)=O)C(=O)N[C@@H](CS)C(=O)N[C@@H](CCCCN)C(=O)N[C@H](C(=O)O)C(C)C` [NLVSGLIEARKYLEQLHRKLKNCKV], for which the MIC in the assay with Staphylococcus aureus is 3.84 µM (≈ 11.3 µg/mL); in the assay on Staphylococcus aureus MR it was 3.84 µM (≈ 11.3 µg/mL); in the assay on Acinetobacter baumannii, 15.3 µM (≈ 45.3 µg/mL); with Enterococcus faecalis, 3.84 µM (≈ 11.3 µg/mL); against Serratia marcescens, 7.65 µM (≈ 22.6 µg/mL); against Escherichia coli, 2.71 µM (≈ 8.02 µg/mL). Besides, the MIC in the assay on Klebsiella pneumoniae amounted to 3.84 µM (≈ 11.3 µg/mL); in the assay with Pseudomonas aeruginosa, 15.3 µM (≈ 45.3 µg/mL); against Enterococcus faecium, 10.8 µM (≈ 32 µg/mL); in [11], 10.8 µM (≈ 32 µg/mL); in the assay on Streptococcus pneumoniae, 3.84 µM (≈ 11.3 µg/mL).

With `CC[C@H](C)[C@H](NC(=O)CN)C(=O)N[C@@H](CCSC)C(=O)N[C@@H](CC(=O)O)C(=O)N[C@H](C(=O)N[C@H](C(=O)N[C@@H](CCCCN)C(=O)N[C@@H](CC(N)=O)C(=O)N[C@@H](C)C(=O)N[C@@H](C)C(=O)N[C@@H](CCCCN)C(=O)N[C@@H](CC(N)=O)C(=O)N[C@@H](CC(C)C)C(=O)N[C@@H](C)C(=O)NCC(=O)N[C@@H](CCC(N)=O)C(=O)N[C@@H](CC(C)C)C(=O)N[C@@H](CC(C)C)C(=O)N[C@@H](CC(=O)O)C(=O)N[C@@H](CCCCN)C(=O)N[C@@H](CC(C)C)C(=O)N[C@@H](CCCCN)C(=O)O)C(C)C)[C@@H](C)O` [GIMDTVKNAAKNLAGQLLDKLK], the MIC in assay [12] is no less than 512 µM; in assay [13], no less than 512 µM; in [2], greater than 512 µM; in assay [14] it was no less than 128 µM; in assay [15] it was no less than 256 µM; in assay [16], no less than 512 µM.

For the compound `CC[C@H](C)[C@H](NC(=O)[C@H](CCCCN)NC(=O)[C@H](CCCCN)NC(=O)[C@H](C)NC(=O)[C@@H](NC(=O)[C@H](C)NC(=O)[C@H](CC(C)C)NC(=O)[C@H](CC(C)C)NC(=O)[C@H](C)NC(=O)[C@H](CCCCN)NC(=O)[C@H](CC(C)C)NC(=O)[C@H](CC(N)=O)NC(=O)[C@H](CC(C)C)NC(=O)[C@H](CCCN=C(N)N)NC(=O)[C@H](CCCN=C(N)N)NC(=O)[C@H](CCCN=C(N)N)NC(=O)[C@H](CCC(N)=O)NC(=O)[C@H](CCCN=C(N)N)NC(=O)[C@H](CCCN=C(N)N)NC(=O)[C@H](CCCCN)NC(=O)[C@H](CCCCN)NC(=O)[C@@H](N)CCCN=C(N)N)C(C)C)C(=O)N[C@@H](CC(C)C)C(N)=O` [RKKRRQRRRLNLKALLAVAKKIL], the MIC in assay [12] is 8 µM (≈ 22.6 µg/mL); in assay [13], 4 µM (≈ 11.3 µg/mL); in [2], 4 µM (≈ 11.3 µg/mL); in assay [14], 2 µM (≈ 5.66 µg/mL); in [15] it was 4 µM (≈ 11.3 µg/mL); in assay [16], 2 µM (≈ 5.66 µg/mL).
